Laboratory results taken from patent US8722937B2 (priority 2006, dated 2014).
Converted amounts (≈) assume the structure as drawn. Where two headings read alike, the source gives them in different places.

Legend:
[1] = molecular target: T1, FabH derived from E. coli (ecFabH) (Escherichia coli, UniProt P0A6R0); test: FabH enzyme assay (coupled trichloroacetic acid precipitation assay), ecFabH; assay type: biochemical; details: 5 μM of test compound; read-out: Percent inhibition of FabH derived from E. coli, ecFabH (%)
T1 construct: polyhistidine (N); made in house; host or cells: E. coli
T1 sequence (P0A6R0 1-317): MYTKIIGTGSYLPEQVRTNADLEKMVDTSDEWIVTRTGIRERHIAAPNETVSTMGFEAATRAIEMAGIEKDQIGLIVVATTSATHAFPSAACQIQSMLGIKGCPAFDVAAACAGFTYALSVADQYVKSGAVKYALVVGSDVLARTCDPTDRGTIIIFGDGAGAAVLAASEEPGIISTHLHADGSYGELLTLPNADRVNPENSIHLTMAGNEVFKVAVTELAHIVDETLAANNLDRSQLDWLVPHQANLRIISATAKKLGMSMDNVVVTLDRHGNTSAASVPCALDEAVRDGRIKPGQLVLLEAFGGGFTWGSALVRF

S. aureus (ATCC 25923) [2] = test: microbe, parasite or virus in culture; assay type: cell-based, Staphylococcus aureus; details: 24 h, 37° C.; for zone of inhibition at 20 µg/disc: Staphylococcus aureus, ATCC25923
[3] = test system: methicillin-resistant S. aureus (MRSA); test: microbe, parasite or virus in culture; assay type: cell-based, Staphylococcus aureus; details: 24 h, 37° C.; for zone of inhibition at 20 µg/disc: Staphylococcus aureus, MRSA, read-out: Average zones of growth inhibition of MRSA (USF-652-659, 919-920)
S. aureus (ATCC 25923) [4] = test: Agar dilution minimum inhibitory concentration (MIC), S. aureus; assay type: cell-based, Staphylococcus aureus; details: serial dilution in 24-well plate, NCCLS; for MIC: Staphylococcus aureus, ATCC25923, read-out: Minimum inhibitory concentration (MIC) against S. aureus (ATCC 25923)
B. anthracis (USF 848) [5] = test: microbe, parasite or virus in culture; assay type: cell-based, Bacillus anthracis; details: 24 h, 37° C.; for zone of inhibition at 20 µg/disc: Bacillus anthracis
B. anthracis (USF 848) [6] = test: microbe, parasite or virus in culture; assay type: cell-based, Bacillus anthracis; details: for MIC: Bacillus anthracis, read-out: Minimum inhibitory concentration (MIC) against B. anthracis (USF 848)
[7] = test system: E. coli (K12; ATCC 23590); test: Kirby-Bauer zones of inhibition, E. coli; assay type: cell-based, Escherichia coli; details: for zone of inhibition against E. coli: full or partial not stated
[8] = test system: E. coli (K12; ATCC 23590); test: Minimum inhibitory concentration (MIC), E. coli; assay type: cell-based; details: Escherichia coli, ATCC23590, read-out: MIC (μg/mL) against E. coli
[9] = read-out: Zones of growth inhibition of S. aureus (ATCC 25923)
[10] = read-out: Zones of growth inhibition of S. aureus (ATCC 25923), areas of partial inhibition
[11] = read-out: Zones of growth inhibition of B. anthracis (USF 848)
[12] = read-out: Zones of growth inhibition of B. anthracis (USF 848), areas of partial growth inhibition

SMILES	inhibition at 5 µM [1] [%]	zone of inhibition at 20 µg/disc (S. aureus (ATCC 25923) [2]; [9]) [mm]	zone of inhibition at 20 µg/disc (S. aureus (ATCC 25923) [2]; [10]) [mm]	zone of inhibition at 20 µg/disc [3] [mm]	MIC (S. aureus (ATCC 25923) [4]) [µg/mL]	zone of inhibition at 20 µg/disc (B. anthracis (USF 848) [5]; [11]) [mm]	zone of inhibition at 20 µg/disc (B. anthracis (USF 848) [5]; [12]) [mm]	MIC (B. anthracis (USF 848) [6]) [µg/mL]	Zone of Inhibition (mm), E. coli, zones of partial inhibition ([7]; K12 strain, ATCC 23590, number in parentheses) [mm]	Zone of Inhibition (mm), E. coli ([7]; K12 strain, ATCC 23590, number outside parentheses) [mm]	MIC [8] [µg/mL]	activity against S. aureus (ATCC 25923) in Kirby-Bauer assay, in words (S. aureus (ATCC 25923) [2])	Zones of growth inhibition of S. aureus (ATCC 25923) (S. aureus (ATCC 25923) [2])	Zones of growth inhibition of S. aureus (ATCC 25923), areas of partial inhibition (S. aureus (ATCC 25923) [2])	zone of inhibition against E. coli [7] [mm]	Average zones of growth inhibition of MRSA (USF-652-659, 919-920) [3] [mm]	Minimum inhibitory concentration (MIC) against S. aureus (ATCC 25923) (S. aureus (ATCC 25923) [4]) [µg/mL]	Zones of growth inhibition of B. anthracis (USF 848) (B. anthracis (USF 848) [5]) [mm]	Minimum inhibitory concentration (MIC) against B. anthracis (USF 848) (B. anthracis (USF 848) [6]) [µg/mL]
CCCCSSc1ccc([N+](=O)[O-])cc1 [Compound 38f, n-Butyl p-nitrophenyl Disulfide]	93	41	53	28	32 (≈ 131 µM)	44	52	1 (≈ 4.11 µM)	22	15	96 (≈ 394 µM)								
CCSSc1ccccn1 [Compound 42b, Ethyl 2-pyridinyl Disulfide]			21		32 (≈ 187 µM)		27					some activity							
CSSc1cccc([N+](=O)[O-])c1 [Compound 43a, Methyl m-nitrophenyl Disulfide]		27	36	15	16 (≈ 79.5 µM)	43		2 (≈ 9.94 µM)					27 (36) mm	27 (36) mm	10				
CCSSc1cccc([N+](=O)[O-])c1 [Compound 43b, Ethyl m-nitrophenyl Disulfide]			45	12	48 (≈ 223 µM)	32	40	0.38 (≈ 1.76 µM)											
CC(C)SSc1cccc([N+](=O)[O-])c1 [Compound 43c, Isopropyl m-nitrophenyl Disulfide]		55	85	38	0.4 (≈ 1.74 µM)	30	54	< 0.125					55 (85) mm	55 (85) mm					
CCC(C)SSc1cccc([N+](=O)[O-])c1 (stereo not shown) [Compound 43d, s-Butyl m-nitrophenyl Disulfide]		25	45	22	2 (≈ 8.22 µM)	27	41	< 0.125					25 (45) mm	25 (45) mm					
CSSc1ccccc1[N+](=O)[O-] [Compound 44a, Methyl o-nitrophenyl Methyl Disulfide]													34(37) mm	34(37) mm	9	26	64 (≈ 318 µM)	31	4 (≈ 19.9 µM)
CCSSc1ccccc1[N+](=O)[O-] [Compound 44b]													29(40) mm	29(40) mm			16 (≈ 74.3 µM)	35	0.63 (≈ 2.93 µM)
CC(C)SSc1ccccc1[N+](=O)[O-] [Compound 44c, Isopropyl o-nitrophenyl Disulfide]		17	31	20	6 (≈ 26.2 µM)	16	27	0.63 (≈ 2.75 µM)					17 (31) mm	17 (31) mm					
CCC(C)SSc1ccccc1[N+](=O)[O-] (stereo not shown) [Compound 44d, s-Butyl o-nitrophenyl Disulfide]		15	24		16 (≈ 65.7 µM)	23		0.75 (≈ 3.08 µM)					15 (24) mm	15 (24) mm					
CSSc1ccc(NC(C)=O)cc1 [Compound 46a, p-Acetamidophenyl Methyl Disulfide]			20				23	8 (≈ 37.5 µM)											
